Patent US20250263496A1, “Neutrophil-Activating Therapy for the Treatment of Cancer” (The Board of Trustees of the Leland Stanford Junior …, priority 2024, published 2025)

Columns and labels:
B16 cells = experiment: Mouse in vitro cytotoxicity (EuTDA), B16 cells co-cultured with neutrophils; assay type: cell-based; conditions: for effect of agent on ex vivo killing of tumor cells by neutrophils: neutrophils from treated tumors stimulated with neutrophil-activating therapy
Procedure: B16 tumors were treated by intratumoral injection of TNF+anti-CD40+anti-gp75 and harvested 12 hours post-treatment. Tumors were dissected away from any surrounding fat, minced, and digested in 5 mg/ml collagenase IV (Worthington) plus 0.1 mg/ml DNase I (Sigma) with continuous mixing by magnetic stir bars for 20 minutes at 37° C. in RPMI-1640 (Gibco) with 2% FBS. Following digestion, tissue was mashed through a […] cell strainer (Falcon) and washed. For some studies, bone marrow was harvested by grinding bones from tumor-naive untreated mice in a mortar and pestle and mashing through a […] strainer (Falcon). Neutrophils were isolated from tumor and bone marrow samples with the MojoSort Mouse Ly6G Selection Kit (BioLegend), according to the manufacturer's instructions, and used in the cytotoxicity assay.
Cytotoxicity assays were conducted using the EuTDA assay from the DELFIA TRF cytotoxicity kit (PerkinElmer) according to the manufacturer's instructions. Briefly, B16 cells were labeled for 10 minutes with BATDA, and 5×10^3 labeled cells were added per well to a 96 well V-bottom plate in RPMI-1640. Neutrophils were added at a ratio of 10:1 unless otherwise stated. All co-cultures were conducted in the presence of TNF (10 ng/ml), anti-CD40 (1 μg/ml), anti-gp75 (1 μg/ml), and 10% active mouse C57BL/6 complement serum (Innovative Research), except where indicated otherwise. Mouse C57BL/6 complement serum was heat-inactivated for 40 minutes at 57° C. where inactivation is specified. In some experiments, mouse IgG2a isotype control (1 μg/ml, isotype control for anti-gp75, clone C1.18.4, Bio X Cell), anti-mouse CD16/CD32 (10 μg/ml, clone 2.4G2, Bio X Cell), recombinant mouse C5a (50 nM, R&D Systems), anti-C5a (25 μg/ml, clone 295108, R&D Systems), rat IgG2a isotype control (25 μg/ml, isotype control for anti-C5a, clone 2A3, Bio X Cell), anti-C5AR1 (5 μg/ml, clone 20/70, BioLegend), rat IgG2b isotype control (5 μg/ml, isotype control for anti-C5AR1, clone LTF-2, Bio X Cell), SC57461A (10 μM, Cayman Chemical), CP-105696 (1 μM, Sigma), topiroxostat (10 μM, MedChem Express), or DMSO (vehicle for SC57461A, CP-105696, and topiroxostat) were added to the wells with the B16 and neutrophils. After 4 hours of co-culture at 37° C., supernatant was taken from the wells, Europium solution was added, and TDA released from lysed B16 cells was detected by […] on a Victor X4 fluorescence microplate reader (PerkinElmer). Percent maximal lysis was determined by calculating the specific release of TDA using the formula: (experimental release−spontaneous release)/(maximum release −spontaneous release), where spontaneous release was determined by wells containing no neutrophils and maximum release was determined by wells with lysis buffer added.
For trogocytosis studies investigating transfer of tumor-binding antibody, anti-gp75 labeled with AF647 (clone TA99, Novus Biologicals) was used in place of unlabeled anti-gp75. For studies investigating transfer of B16 cell membrane, DiD′ Solid (ThermoFisher Scientific) was reconstituted in DMSO at 10 mg/ml and diluted to a working solution of 5 μg/ml in serum-free DMEM. B16 cells were labeled in this solution for 20 minutes at 37° C. at 1×10^6 cells/ml. Labeled B16 was washed 3 times in warm media before being added to the co-culture wells with the neutrophils. Following co-culture, flow cytometry was used to identify DiD signal in neutrophils.

B16 tumors = experiment: TUNEL staining of cell death in B16 tumors; assay type: in vivo, mouse; conditions: agent given prior to neutrophil-activating therapy
Procedure: Tumors were dissected away from surrounding fat, fixed in 2% paraformaldehyde for 2 hours at 4° C., equilibrated in a 30% sucrose solution at 4° C., and embedded and frozen in O.C.T. Compound (Tissue-Tek). Slides were cut to […] and blocked with 1% BSA and 10% serum matched to the secondary antibody species. The following antibodies were used for immunofluorescence: PE anti-Ly6G (clone 1A8, BioLegend), DyLight 650 anti-gp75 (clone TA99, Bio X Cell, labeled using DyLight 650 NHS Ester (Thermo Scientific)), fluorescein anti-gp75 (clone TA99, Bio X Cell, labeled using NHS-Fluorescein (Thermo Scientific)), FITC anti-DNA/RNA damage (clone 15A3, recognizing 8-hydroxy-2′-deoxyguanosine/8-oxo-7,8-dihydroguanine/8-oxo-7,8-dihydroguanosine, Abcam), and AF647 anti-C3 (clone 11H9, Novus Biologicals). DAPI (Invitrogen) was stained at 1 μg/ml. FITC/fluorescein signal was amplified using AF488 anti-FITC (ThermoFisher Scientific), and PE was amplified using biotin anti-PE (clone PE001, BioLegend) followed by DyLight 594 streptavidin (BioLegend) or DyLight 649 streptavidin (BioLegend). Prior to use of biotinylated antibodies, endogenous biotin was blocked using the Avidin/Biotin Blocking Kit (Vector Laboratories). Prior to DNA/RNA damage staining, sections were permeabilized with 0.1% Triton X-100 in 0.1% sodium citrate. TUNEL (Terminal deoxynucleotidyl transferase dUTP nick end labeling) staining was performed using the In Situ Cell Death Detection Kit, TMR Red (Roche) according to the manufacturer's instructions. […] All parameters that were quantified were acquired with identical microscope settings and adjusted identically in Photoshop, and all adjustments were applied equally across the entire tumor. Quantification was performed in ImageJ, using the wand tool on the overlaid multichannel image to draw a border around the tumor and then measuring the percent area within that border with signal for the channel of the marker quantified.

naive neutrophils = experiment: Mouse in vitro neutrophil stimulations; assay type: cell-based
Procedure: Mouse in vitro neutrophil stimulations. Bone marrow was harvested by grinding bones in a mortar and pestle and mashing through a […] strainer (Falcon). Neutrophils were isolated by negative selection with the MojoSort Mouse Neutrophil Isolation Kit (BioLegend). Following isolation, neutrophils were plated in Opti-MEM (Gibco) at 1×10^5 cells in 100 μl and stimulated with 10 ng/ml TNF, 1 μg/ml anti-CD40, 1 μg/ml anti-gp75, and/or 50 nM recombinant mouse C5a (R&D Systems) for 30 minutes at 37° C. After 30 minutes, the supernatant was collected, centrifuged to remove cells and debris, and analyzed for LTB4 using the Leukotriene B4 ELISA kit (Cayman Chemical 520111) as described above. Additionally, stimulated neutrophils were stained for activation markers and analyzed by flow cytometry as described above.

Molecule: O=C(O)C1(c2ccc3c(c2)OC[C@H](Cc2ccc(-c4ccccc4)cc2)[C@H]3O)CCCC1 [CP-105696]
- effect of agent on ex vivo killing of tumor cells by neutrophils (B16 cells): prevented ex vivo killing of tumor cells

Molecule: N[C@@H](CCC(=O)N[C@@H](CS)C(=O)NCC(=O)O)C(=O)O [GSH, Reduced L-glutathione]
- effect of agent on ex vivo killing of tumor cells by neutrophils (B16 cells): blocked ex vivo killing of tumor cells
- effect of agent on treatment-induced tumor cell death (B16 tumors): decreased tumor cell death in vivo

Molecule: CN(CCCOc1ccc(Cc2ccccc2)cc1)CCC(=O)O.Cl [SC57461A]
- effect of agent on ex vivo killing of tumor cells by neutrophils (B16 cells): prevented ex vivo killing of tumor cells
- effect of agent on treatment-induced tumor cell death (B16 tumors): prevented treatment-induced tumor cell death

B1: C5a: recombinant mouse C5a (R&D Systems) (protein, UniProt P06684 679-755, looked up)
C5a anaphylatoxin: NLHLLRQKIEEQAAKYKHSVPKKCCYDGARVNFYETCEERVARVTIGPLCIRAFNECCTIANKIRKESPHKPVQLGR
modifications: C5a anaphylatoxin
- neutrophil activation (naive neutrophils; in vitro): activated neutrophils
- LTB4 production by neutrophils (naive neutrophils; in vitro stimulation): induced LTB4
- requirement for ex vivo killing of B16 cells by tumor-infiltrating neutrophils (B16 cells): required C5a or serum containing functional complement

B2: catalase: enzyme neutralizing hydrogen peroxide (C40, Sigma) (protein, UniProt P00432 2-527, looked up)
Catalase: ADNRDPASDQMKHWKEQRAAQKPDVLTTGGGNPVGDKLNSLTVGPRGPLLVQDVVFTDEMAHFDRERIPERVVHAKGAGAFGYFEVTHDITRYSKAKVFEHIGKRTPIAVRFSTVAGESGSADTVRDPRGFAVKFYTEDGNWDLVGNNTPIFFIRDALLFPSFIHSQKRNPQTHLKDPDMVWDFWSLRPESLHQVSFLFSDRGIPDGHRHMNGYGSHTFKLVNANGEAVYCKFHYKTDQGIKNLSVEDAARLAHEDPDYGLRDLFNAIATGNYPSWTLYIQVMTFSEAEIFPFNPFDLTKVWPHGDYPLIPVGKLVLNRNPVNYFAEVEQLAFDPSNMPPGIEPSPDKMLQGRLFAYPDTHRHRLGPNYLQIPVNCPYRARVANYQRDGPMCMMDNQGGAPNYYPNSFSAPEHQPSALEHRTHFSGDVQRFNSANDDNVTQVRTFYLKVLNEEQRKRLCENIAGHLKDAQLFIQKKAVKNFSDVHPEYGSRIQALLDKYNEEKPKNAVHTYVQHGSHLSAREKANL
- effect of agent on ex vivo killing of tumor cells by neutrophils (B16 cells): blocked ex vivo killing of tumor cells
